These results are taken from US7084176B2, “N-arylphenylacetamide derivatives and medicinal compositions containing the same” (Dainippon Pharmaceutical Co., Ltd., priority 2001, dated 2006).

For this test, the system named is male Std:ddY mice. Nature of the test: Phenyl-1,4-benzoquinone-induced writhing test. The conditions noted are these: for inhibition in vivo at 1 mg/kg / ED50 / inhibition in vivo at 10 mg/kg: Mus musculus; for inhibition in vivo at 1 mg/kg / inhibition in vivo at 10 mg/kg: 1 h, read-out: Inhibitory percentage (%); for inhibition in vivo at 1 mg/kg: subcutaneously administered at a dose of 1 mg/kg; for inhibition in vivo at 1 mg/kg / inhibition in vivo at 10 mg/kg / Inhibitory percentage (%): 60 minutes before PBQ; for ED50 / ED50 (mg/kg po) / Inhibitory percentage (%) / ED50 (mg/kg sc): writhing inhibition; for ED50 / ED50 (mg/kg po) / ED50 (mg/kg sc): logit analysis; for inhibition in vivo at 10 mg/kg / Inhibitory percentage (%): orally administered at a dose of 10 mg/kg. Type of test: in vivo. The method, then: Phenyl-1,4-benzoquinone-induced Writhing Test Referring to the method disclosed in Proc. Soc. exp. Biol. […] For oral administration, a test compound was suspended in 0.5% tragacanth solution. […] In the control group, a physiological saline solution containing 10% Tween 80 and 10% ethanol was administered in the case of subcutaneous administration, or a 0.5% tragacanth solution was administered in the case of oral administration. The number of writhing movements in the test compound-treated group was compared with that in the control group, and the writhing inhibitory percentage was calculated therefrom and considered as an analgesic effect. Writhing inhibitory percentage (%)=[(A−B)/A]×100 In the above equation, A means the number of writhing movements in the control group, and B means the number of writhing movements in the test compound-treated group. From the writhing inhibitory percentage of the test compound, ED50 (mg/kg) was calculated by logit analysis.
(In general: Writhing tests count abdominal constrictions after an irritant is injected.)

Where [1] appears, read: sc, subcutaneous administration, read-out: ED50 (mg/kg sc).
Setting [2] is: po, oral administration, read-out: ED50 (mg/kg po).

Read-outs that look alike come from different tables or passages of the source.

As for `COc1cc(CC(=O)Nc2cccc(C3CCC(C(C)(C)C)CC3)c2)ccc1OC(=O)C(C)(C)C` (stereo not drawn) [Example 71, 4-tert-butylcarbonyloxy-N-[3-(4-tert-butylcyclohexan-1-yl)-phenyl]-3-methoxyphenylacetamide], the inhibition in vivo at 1 mg/kg (sc) is 94.2%. Under setting [1], the ED50 worked out at 0.16 mg/kg.
Regarding `COc1cc(CC(=O)Nc2cccc(-c3cccc(C4CCCCC4)c3)c2)ccc1OCCN` [Example 183, 4-(2-aminoethoxy)-N-[3-(3-cyclohexylphenyl)phenyl]-3-methoxyphenylacetamide], the inhibition in vivo at 10 mg/kg (po) was 83.5%. The ED50 under setting [2] was 3.09 mg/kg.
As for `COc1cc(CC(=O)Nc2cccc(CCC3CCCCC3)c2)ccc1O` [Example 114, 4-hydroxy-3-methoxy-N-[3-(2-cyclohexylethyl)phenyl]phenylacetamide], the inhibition in vivo at 1 mg/kg (sc) came out at 98%.
`COc1cc(CC(=O)Nc2ccc(C)c(-c3ccccc3)c2)ccc1OCCN` [Example 173, 4-(2-aminoethoxy)-3-methoxy-N-[(3-phenyl-4-methyl)phenyl]-phenylacetamide]: the “Inhibitory percentage (%)” value was determined as 100%. Further, the “ED50 (mg/kg po)” value (oral administration, listed as Ex. 173) was 0.87 mg/kg.
`COc1cc(CC(=O)Nc2cccc([C@H]3CC[C@H](C(C)(C)C)CC3)c2)ccc1OCCN` [Example 195, 4-(2-aminoethoxy)-N-[3-[(trans)-4-tert-butylcyclohexan-1-yl]-phenyl]-3-methoxyphenylacetamide]: the inhibition in vivo at 10 mg/kg (po) was determined as 77.7%.
Take `COc1cc(CC(=O)Nc2cc(-c3ccccc3)ccc2C)ccc1OCCN` [Example 172, 4-(2-aminoethoxy)-N-[(2-methyl-5-phenyl)phenyl]-3-methoxyphenylacetamide]: the “Inhibitory percentage (%)” value turned out to be 75.9%. Besides, the “ED50 (mg/kg po)” value (oral administration) stood at 4.42 mg/kg.
As to `COc1cc(CC(=O)Nc2cccc(-c3cccc(Cl)c3)c2)ccc1OCCN` [Example 126, 4-(2-aminoethoxy)-N-[3-(3-chlorophenyl)phenyl]-3-methoxyphenylacetamide], the inhibition in vivo at 10 mg/kg (po) was determined as 89.9%. Also, the ED50 under setting [2] was 2.19 mg/kg.
Regarding `COc1cc(CC(=O)Nc2cccc(-c3ccccc3)c2)ccc1O` [Example 35, 4-hydroxy-3-methoxy-N-(3-phenylphenyl)phenylacetamide], where the note is “sc”, the inhibition in vivo at 1 mg/kg worked out at 89.4%. Further, the ED50 under setting [1] was 0.23 mg/kg.
Turning to `COc1cc(CC(=O)Nc2cccc(N3CCCC(c4ccccc4)C3)c2)ccc1OCCN` (stereo not drawn) [Example 200, 4-(2-aminoethoxy)-3-methoxy-N-[3-(3-phenylpiperidin-1-yl)-phenyl]phenylacetamide], for the setting “po”, the inhibition in vivo at 10 mg/kg was found to be 84.2%.
For `COc1cc(CC(=O)Nc2cccc([C@H]3CC[C@@H](C(C)(C)C)CC3)c2)ccc1OCCN` [Example 194, 4-(2-aminoethoxy)-N-[3-[(cis)-4-tert-butylcyclohexan-1-yl]-phenyl]-3-methoxyphenylacetamide], where the note is “po”, the inhibition in vivo at 10 mg/kg was found to be 96.2%. Further, the ED50 under setting [2] is 1.05 mg/kg.
With `COc1cc(CC(=O)Nc2cccc(-c3c(C)cc(C)cc3C)c2)ccc1OCCN` [Example 133, 4-(2-aminoethoxy)-3-methoxy-N-[3-(2,4,6-trimethylphenyl)-phenyl]phenylacetamide], the inhibition in vivo at 10 mg/kg (po) was 94%. Also, the ED50 under setting [2] worked out at 1.28 mg/kg.
Take `COc1cc(CC(=O)Nc2cccc(CCc3ccccc3)c2)ccc1O` [Example 54, 4-hydroxy-3-methoxy-N-[3-(2-phenylethyl)phenyl]phenylacetamide]: the inhibition in vivo at 1 mg/kg (sc) turned out to be 90.4%. Moreover, the ED50 under setting [1] is not above 0.1 mg/kg. For the setting “subcutaneous administration, listed as Ex. 54”, the “ED50 (mg/kg sc)” value was found to be 0.081 mg/kg.
With `COc1cc(CC(=O)Nc2cccc(-c3cc(F)cc(F)c3)c2)ccc1OCCN` [Example 129, 4-(2-aminoethoxy)-N-[3-(3,5-difluorophenyl)phenyl]-3-methoxyphenylacetamide], the inhibition in vivo at 10 mg/kg (po) is 76.9%. For the same compound, the ED50 under setting [2] was found to be 1.89 mg/kg.
For `COc1cc(CC(=O)Nc2cccc(C3CC(C)CC(C)C3)c2)ccc1O` (stereo not drawn) [Example 85, N-[3-(3,5-dimethylcyclohexan-1-yl)phenyl]-4-hydroxy-3-methoxyphenylacetamide], for the setting “sc”, the inhibition in vivo at 1 mg/kg is 76.9%. For the same compound, the ED50 under setting [1] was 0.31 mg/kg.
`COc1cc(CC(=O)Nc2cccc(-c3ccc(F)cc3)c2)ccc1OCCN` [Example 124, 4-(2-aminoethoxy)-N-[3-(4-fluorophenyl)phenyl]-3-methoxyphenylacetamide]: the inhibition in vivo at 10 mg/kg (po) amounted to 100%. Besides, under setting [2], the ED50 is not above 1 mg/kg. The “ED50 (mg/kg po)” value (oral administration, listed as Ex. 124) amounted to 0.71 mg/kg.
As for `COc1cc(CC(=O)Nc2ccc3c(c2)C(=O)/C(=C/C(C)C)CC3)ccc1O` [Ex. 250], the inhibition in vivo at 1 mg/kg (sc) was found to be 55%.
Take `COc1cc(CC(=O)Nc2cccc(-c3ccccc3C(F)(F)F)c2)ccc1OCCN` [Example 142, 4-(2-aminoethoxy)-3-methoxy-N-[3-(2-trifluoromethylphenyl)-phenyl]phenylacetamide]: the inhibition in vivo at 10 mg/kg (po) stood at 98.9%. In addition, the ED50 under setting [2] was found to be 1.19 mg/kg.
As to `COc1cc(CC(=O)Nc2cccc(-c3cccc(OC(F)(F)F)c3)c2)ccc1OCCN` [Example 150, 4-(2-aminoethoxy)-3-methoxy-N-[3-(3-trifluoromethoxyphenyl)-phenyl]phenylacetamide], where the note is “po”, the inhibition in vivo at 10 mg/kg was determined as 100%. Besides, the ED50 under setting [2] is 1.32 mg/kg.
In the case of `COc1cc(CC(=O)Nc2cc(-c3ccccc3)cc(C(F)(F)F)c2)ccc1OCCN` [Example 178, 4-(2-aminoethoxy)-3-methoxy-N-[(3-trifluoromethyl-5-phenyl)-phenyl]phenylacetamide], the “Inhibitory percentage (%)” value came to 100%. Where the note is “oral administration”, the “ED50 (mg/kg po)” value came out at 1.65 mg/kg.
Turning to `COc1cc(CC(=O)Nc2cccc(N3CCCC4(CCCCC4)C3)c2)ccc1OCCN` [Example 201, 4-(2-aminoethoxy)-3-methoxy-N-[3-(2-azaspiro[5, 5]undecan-2-yl)phenyl]phenylacetamide], the inhibition in vivo at 10 mg/kg (po) is 100%. Further, under setting [2], the ED50 was 2.04 mg/kg.
On to `COc1cc(CC(=O)Nc2ccc(OC(F)(F)F)c(-c3ccccc3)c2)ccc1OCCN` [Example 179, 4-(2-aminoethoxy)-3-methoxy-N-[(3-phenyl-4-trifluoromethoxy)-phenyl]phenylacetamide], for which the “Inhibitory percentage (%)” value was 100%. For the same compound, the “ED50 (mg/kg po)” value (oral administration, listed as Ex. 179) is given as 0.95 mg/kg.
As to `COC(=O)c1cccc(-c2cccc(NC(=O)Cc3ccc(OCCN)c(OC)c3)c2)c1` [Example 146, 4-(2-aminoethoxy)-N-[3-(3-methoxycarbonylphenyl)phenyl]-3-methoxyphenylacetamide], for the setting “po”, the inhibition in vivo at 10 mg/kg was determined as 76.9%. Under setting [2], the ED50 came to 2.68 mg/kg.
In the case of `COc1cc(CC(=O)Nc2cccc(/C=C\c3ccccc3)c2)ccc1O` [Example 56, 4-hydroxy-3-methoxy-N-[3-[(Z)-2-phenylvinyl]phenyl]phenylacetamide], the inhibition in vivo at 1 mg/kg (sc) came out at 82.7%. Further, the ED50 under setting [1] turned out to be 0.11 mg/kg.
In the same order, the values of `COc1cc(CC(=O)Nc2cccc(N3CCC(C(C)(C)C)CC3)c2)ccc1O` [Example 86, N-[3-(4-tert-butylpiperidin-1-yl)phenyl]-4-hydroxy-3-methoxyphenylacetamide] are 78.8% and 0.33 mg/kg.
Turning to `COc1cc(CC(=O)Nc2cccc(C3CCCC3)c2)ccc1O` [Example 4, N-(3-cyclopentylphenyl)-4-hydroxy-3-methoxyphenylacetamide], for the setting “sc”, the inhibition in vivo at 1 mg/kg was determined as 79.6%.
Take `COc1cc(CC(=O)Nc2cccc(C3C4CC5CC(C4)CC3C5)c2)ccc1O` (stereo not drawn) [Example 3, N-[3-(adamantan-2-yl)phenyl]-4-hydroxy-3-methoxyphenylacetamide]: the inhibition in vivo at 1 mg/kg (sc) was found to be 91.3%. In addition, the ED50 under setting [1] worked out at 0.46 mg/kg.
For `COc1cc(CC(=O)Nc2cccc(N3CCCC(C4CCCCC4)C3)c2)ccc1O` (stereo not drawn) [Example 87, N-[3-(3-cyclohexylpiperidin-1-yl)phenyl]-4-hydroxy-3-methoxyphenylacetamide], the inhibition in vivo at 1 mg/kg (sc) was 95.8%. In addition, under setting [1], the ED50 came to 0.4 mg/kg.
For `COc1cc(CC(=O)Nc2cccc(C3=CCCCC3)c2)ccc1O` [Example 9, N-[3-(cyclohexen-1-yl)phenyl]-4-hydroxy-3-methoxyphenylacetamide], the inhibition in vivo at 1 mg/kg (sc) amounted to 93.2%. Moreover, under setting [1], the ED50 came to 0.23 mg/kg.
Take `COc1cc(CC(=O)Nc2cc(-c3ccccc3)ccc2F)ccc1OCCN` [Example 170, 4-(2-aminoethoxy)-N-[(2-fluoro-5-phenyl)phenyl]-3-methoxyphenylacetamide]: the “Inhibitory percentage (%)” value stood at 87.9%. The “ED50 (mg/kg po)” value (oral administration) amounted to 1.06 mg/kg.
With `COc1cc(CC(=O)Nc2cc(-c3ccccc3)cc(F)c2OC)ccc1OCCN` [Example 171, 4-(2-aminoethoxy)-N-[(2-methoxy-3-fluoro-5-phenyl)phenyl]-3-methoxyphenylacetamide], the “Inhibitory percentage (%)” value stood at 94.0%. Further, where the note is “oral administration, listed as Ex. 171”, the “ED50 (mg/kg po)” value amounted to 0.96 mg/kg.
On to `COc1cc(CC(=O)Nc2cccc(C3CCC(C)CC3)c2)ccc1O` (stereo not drawn) [Example 13, 4-hydroxy-3-methoxy-N-[3-(4-methylcyclohexan-1-yl)phenyl]-phenylacetamide], for which the inhibition in vivo at 1 mg/kg (sc) was found to be 100%. Besides, the ED50 under setting [1] was not above 0.1 mg/kg. The “ED50 (mg/kg sc)” value (subcutaneous administration, listed as Ex. 13) is recorded as 0.097 mg/kg.
